From article PMC5708337 (2017)

How the values were obtained:
[1] = test system: hTeloCBiotin (DNA, i motif) TAACCCTAACCCTAACCCTAACCC; assay: SPR, single concentration; conditions: Na+ (100 mM NaCl, 10 mM sodium cacodylate), pH 5.5, 0.05% Tween-20, 5% DMSO, 50 μM compound; for binding: NB
[2] = test system: c-MycCBiotin (DNA, i motif) CCTTCCCCACCCTCCCCACCCTCCCCA; assay: SPR, single concentration; conditions: Na+ (100 mM NaCl, 10 mM sodium cacodylate); pH 5.5, 0.05% Tween-20, 5% DMSO; 50 μM compound
[3] = test system: DSbiotin (DNA, duplex) GGCATAGTGCGTGGGCGTTAGC/GCTAACGCCCACGCACTATGCC; assay: SPR, single concentration; conditions: Na+ (100 mM NaCl, 10 mM sodium cacodylate); pH 5.5, 0.05% Tween-20, 5% DMSO; 50 μM compound
[4] = test system: hTeloC (DNA, i motif) TAACCCTAACCCTAACCCTAACCC; assay: fluorescent intercalator displacement; conditions: Na+ (10 mM sodium cacodylate); pH 5.5; thiazole orange 2 μM displaced; 1 μM DNA
[5] = test system: hTeloCBiotin (DNA, i motif) TAACCCTAACCCTAACCCTAACCC; assay: SPR; conditions: Na+ (100 mM NaCl, 10 mM sodium cacodylate); pH 5.5, 0.05% Tween-20, 5% DMSO
[6] = test system: c-MycCBiotin (DNA, i motif) CCTTCCCCACCCTCCCCACCCTCCCCA; assay: SPR; conditions: Na+ (100 mM NaCl, 10 mM sodium cacodylate); pH 5.5, 0.05% Tween-20, 5% DMSO
[7] = test system: DSbiotin (DNA, duplex) GGCATAGTGCGTGGGCGTTAGC/GCTAACGCCCACGCACTATGCC; assay: SPR; conditions: Na+ (100 mM NaCl, 10 mM sodium cacodylate); pH 5.5, 0.05% Tween-20, 5% DMSO

| SMILES | binding [1] | %Rmax [2] [%] | %Rmax [3] [%] | %Rmax [1] [%] | DC50 [4] [µM] | Kd [5] [µM] | Kd [6] [µM] | Kd [7] [µM] |
| --- | --- | --- | --- | --- | --- | --- | --- | --- |
| CC1=NCCc2c1[nH]c1cc(O)ccc21 | no | 64 | 123 |  |  |  |  |  |
| CCN(CC)CCOc1ccc2c(c1)C(=O)c1cc(OCCN(CC)CC)ccc1-2 |  | 420 | 811 | 116 | 2.4 |  |  |  |
| CCN(CC)Cc1cc(Nc2ccnc3cc(Cl)ccc23)ccc1O |  | 31 | 59 | 15 |  |  |  |  |
| O=C1c2ccc(O)c(O)c2C(=O)c2c(O)ccc(O)c21 | no | 49 | 95 |  |  |  |  |  |

Continued, values first:

| binding [1] | %Rmax [2] [%] | %Rmax [3] [%] | %Rmax [1] [%] | DC50 [4] [µM] | Kd [5] [µM] | Kd [6] [µM] | Kd [7] [µM] | SMILES |
| --- | --- | --- | --- | --- | --- | --- | --- | --- |
|  | 36 | 69 | 29 |  |  |  |  | CN(C)c1ccc(O)c2c1C[C@H]1C[C@H]3[C@H](N(C)C)C(O)=C(C(N)=O)C(=O)[C@@]3(O)C(O)=C1C2=O |
|  | 121 | 233 | 325 | 2.9 | 17 ± 2.0 | 13 ± 1.8 | 18 ± 1.1 | NC[C@H]1O[C@H](O[C@H]2[C@H](O)[C@@H](O[C@H]3O[C@H](CO)[C@@H](O)[C@H](N)[C@H]3O)[C@H](N)C[C@@H]2N)[C@H](N)C[C@@H]1O |
|  | 71 | 137 | 38 |  |  |  |  | Nc1ccc(N=Nc2ccccc2)c(N)n1 |
|  | 2534 | 4894 | 2125 | 1.8 |  |  |  | O=C1c2c(O)ccc(O)c2C(=O)c2c(NCCNCCO)ccc(NCCNCCO)c21 |
